# Laboratory results reported in patent publication US20240049707A1, “PESTICIDE COMPOSITIONS OF LICOCHALCONE C” (METABOLIC INSIGHTS LTD., priority 2020, published 2024).
# Experiments:
# [1] = tested on: Pythium aphanidermatum; assay: Microplate based screening of bioactivity against Pythium aphanidermatum; format: cell-based; conditions: 10 μl of 250 ppm solution + 40 μl inoculum, activity grade x repeats x days of activity/252 x 100
# Protocol: Grow Pythium aphanidermatum on SCH in 90 mm petri plates to get sporulating hyphae. Each plate will produce 50 ml of zoospores suspension which will be enough for bioactivity screening for ten 96-well plates.
# Add the same volume (as the suspension) sterile fridge cold 2:PDBC to get 500-2000 spores/ml inoculum. This dilution will result in the amount of 25-100 zoospores in each well. […]
# Screening of Plates: • 1) Read out the plate at […]: 3d, 7d, 14d and 21d following the assay start • 2) Calculate the difference of absorbance between each readout and the readout at zero time • 3) Calculate the percentage of growth inhibition of each well at each time point. […]
# [2] = tested on: Fusarium oxysporum; assay: Microplate based screening of bioactivity against Fusarium oxysporum; format: cell-based; conditions: 10 μl of 250 ppm solution + 40 μl inoculum, activity grade x repeats x days of activity/252 x 100
# Protocol: Diluted in DMSO Licochalcone C was added to microplate wells and mixed with freshly prepared spore suspension and growth of the fungus, starting from frozen spores, was monitored using the plate reader and by visual inspection. […]
# Microplate Preparation for Licochalcone C Bioactivity Experiment: • 1) Take a stock solution of purified 1% Licochalcone C in DMSO from the −20 freezer and thaw it on the bench. • 2) Take 1 μl of stock solution of 1% Licochalcone C and dilute up to 250 ppm with 39 μl of water. • 3) Take 10 μl of the diluted (250 ppm) Licochalcone C solution into the wells of the microplate using a multi-pipette. • 4) Add 40 μl of vigorously mixed spore suspension inoculum to the wells of the microplate using a multi-pipette. • 5) Seal the plate with transparent sealer • 6) Shake the plate for 10 min at 2000 RPM to mix the materials with the hyphae suspension • 7) Centrifugate the plate at 1000RCF for is and stop to collect the liquid at the bottom of the plate • 8) Keep the microplate on the bench until it is read by the plate reader • 9) Read the plate using the plate reader • 10) Collect the plates on the bench • 11) Insert collected plates to a plastic box with cloth cover and put the box in the incubator at 25° C. […]
structure (smiles),measurement,setting,value
"COc1c(/C=C/C(=O)c2ccc(O)cc2)ccc(O)c1CC=C(C)C [Licochalcone C, (E)-3-[4-hydroxy-2-methoxy-3-(3-methylbut-2-enyl)phenyl]-1-(4-hydroxyphenyl)prop-2-en-1-one]",Relative Activity value (%),[1],100%
same,Relative Activity value (%),[2],25%
